Counter-ions that a name gives are not always drawn. Like-named read-outs stand apart in the source and are kept apart here.
Details: 40°C±2°C, RH 75%±5%
Description: In the chromatogram of the sample solution, the chromatographic peaks with peak area smaller than 0.5 times of the main peak area of the control solution should be ignored.

With CN1[C@@H]2CC[C@H]1C[C@@H](OC(=O)C(CO)c1ccccc1)C2 (stereo partly drawn) [Example 160903-P01, atropine sulfate] the Content (0th month) was 100.3%, the Hyoscyamine (0th month) was “+0.002°” and the Moisture (0th month) was 3.15%. The Content (1st month) was 100.3%, the Hyoscyamine (1st month) was “+0.002°” and the Moisture (1st month) was 3.24%. For the same compound, the Content (2nd month) was 100.2%, the Hyoscyamine (2nd month) was “+0.001°” and the Moisture (2nd month) was 2.97%. It also gave a Content (3rd month) of 100.4%, a Hyoscyamine (3rd month) of 0.000° and a Moisture (3rd month) of 3.49%. It also gave a Content (6th month) of 100.3%, a Hyoscyamine (6th month) of 0.000° and a Moisture (6th month) of 3.69%.

From patent US12303500B2, “Method for improving stability of low-concentration atropine ophthalmic preparation” (SHENYANG XINGQI PHARMACEUTICAL CO., LTD., priority 2018, dated 2025)
